In ChEMBL document CHEMBL1157430, “Design, synthesis, and structure-activity relationship study of a novel class of ORL1 receptor antagonists based on N-biarylmethyl spiropiperidine” (Bioorg Med Chem Lett, 2008):

Experiments:
[1] = Displacement of [125I]Tyr14-NC/OFQ from human ORL1 expressed in CHO cells; assay type: cell-based; conditions: read-out: I50
CHO = test: Displacement of [125I]Tyr14-NC/OFQ from human ORL1 expressed in CHO cells at 1 uM; assay type: cell-based
[2] = Lipophilicity Log D at pH 7.4 by shake flask method; assay type: physicochemical; conditions: buffer
[3] = target: Kappa-type opioid receptor (Homo sapiens, UniProt P41145); test: Displacement of [3H]U69593 from human cloned kappa opioid receptor expressed in CHO cells; assay type: cell-based
[4] = Metabolic stability in rat liver microsomes at 1 uM after 30 mins; assay type: ADME, Microsome; conditions: read-out: Stability
Mu-type opioid receptor = Mu-type opioid receptor (Homo sapiens, UniProt P35372); test: Displacement of [3H]diprenorphin from human cloned mu opioid receptor expressed in CHO cells; assay type: cell-based
[5] = Antagonist activity at human ORL1 expressed in CHO cells by GTPgammaS binding assay; assay type: cell-based; conditions: read-out: I50
[6] = Metabolic stability in human liver microsomes at 1 uM after 30 mins; assay type: ADME, Microsome; conditions: read-out: Stability
[7] = target: Voltage-gated inwardly rectifying potassium channel KCNH2 (Homo sapiens, UniProt Q12809); test: Displacement of [35S]MK499 from human ERG in HEK293 cell membrane
Chain of Voltage-gated inwardly rectifying potassium channel KCNH2 (Q12809 whole entry): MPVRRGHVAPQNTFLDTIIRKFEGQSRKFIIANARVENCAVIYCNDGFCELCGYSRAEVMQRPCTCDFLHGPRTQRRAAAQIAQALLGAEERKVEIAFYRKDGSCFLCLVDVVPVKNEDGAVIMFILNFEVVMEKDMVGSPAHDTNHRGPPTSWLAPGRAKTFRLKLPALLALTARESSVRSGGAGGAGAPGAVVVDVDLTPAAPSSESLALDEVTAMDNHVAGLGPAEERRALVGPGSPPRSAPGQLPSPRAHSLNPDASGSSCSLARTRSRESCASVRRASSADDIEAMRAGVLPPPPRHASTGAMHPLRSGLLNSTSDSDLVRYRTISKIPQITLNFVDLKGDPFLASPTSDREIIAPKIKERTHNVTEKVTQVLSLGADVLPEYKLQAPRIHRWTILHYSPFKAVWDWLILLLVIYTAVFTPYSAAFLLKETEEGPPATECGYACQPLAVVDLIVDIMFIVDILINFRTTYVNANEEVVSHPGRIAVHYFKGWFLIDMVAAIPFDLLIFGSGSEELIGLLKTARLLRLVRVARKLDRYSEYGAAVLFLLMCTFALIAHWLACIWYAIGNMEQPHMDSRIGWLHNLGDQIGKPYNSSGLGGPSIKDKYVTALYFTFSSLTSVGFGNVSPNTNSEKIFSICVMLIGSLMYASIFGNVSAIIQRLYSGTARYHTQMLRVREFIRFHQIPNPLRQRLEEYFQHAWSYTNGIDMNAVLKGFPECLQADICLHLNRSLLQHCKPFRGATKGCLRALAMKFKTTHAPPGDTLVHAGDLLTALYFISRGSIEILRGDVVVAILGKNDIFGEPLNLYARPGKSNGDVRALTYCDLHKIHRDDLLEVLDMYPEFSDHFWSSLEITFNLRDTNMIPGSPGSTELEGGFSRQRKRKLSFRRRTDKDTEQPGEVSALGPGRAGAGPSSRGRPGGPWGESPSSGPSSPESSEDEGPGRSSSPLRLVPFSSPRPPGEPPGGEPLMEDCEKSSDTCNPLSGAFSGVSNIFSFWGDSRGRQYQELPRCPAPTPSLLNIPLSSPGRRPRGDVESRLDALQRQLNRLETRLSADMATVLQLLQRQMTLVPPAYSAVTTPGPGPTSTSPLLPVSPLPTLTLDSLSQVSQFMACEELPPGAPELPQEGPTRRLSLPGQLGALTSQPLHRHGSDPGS

Chain of Kappa-type opioid receptor (P41145 whole entry): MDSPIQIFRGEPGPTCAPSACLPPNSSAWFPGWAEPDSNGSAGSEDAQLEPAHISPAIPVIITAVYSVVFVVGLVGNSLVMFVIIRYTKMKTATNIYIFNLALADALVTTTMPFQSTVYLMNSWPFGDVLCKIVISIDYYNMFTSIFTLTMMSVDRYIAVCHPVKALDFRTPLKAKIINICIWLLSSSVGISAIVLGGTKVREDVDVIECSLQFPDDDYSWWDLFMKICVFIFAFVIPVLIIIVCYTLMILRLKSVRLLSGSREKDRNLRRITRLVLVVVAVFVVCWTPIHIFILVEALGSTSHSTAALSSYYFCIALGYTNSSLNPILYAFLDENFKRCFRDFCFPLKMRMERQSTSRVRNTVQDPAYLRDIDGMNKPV
Chain of Mu-type opioid receptor (P35372 whole entry): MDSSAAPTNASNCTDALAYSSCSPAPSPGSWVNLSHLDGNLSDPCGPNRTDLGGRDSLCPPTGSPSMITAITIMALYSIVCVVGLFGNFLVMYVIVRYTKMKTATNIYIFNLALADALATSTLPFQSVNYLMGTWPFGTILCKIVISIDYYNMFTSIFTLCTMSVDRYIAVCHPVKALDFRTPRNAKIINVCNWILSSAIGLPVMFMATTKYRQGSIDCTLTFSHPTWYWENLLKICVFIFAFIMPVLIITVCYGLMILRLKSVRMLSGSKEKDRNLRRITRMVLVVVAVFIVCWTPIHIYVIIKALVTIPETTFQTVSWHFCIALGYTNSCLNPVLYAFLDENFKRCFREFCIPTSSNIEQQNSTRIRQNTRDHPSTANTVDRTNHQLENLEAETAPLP

Row | Structure (SMILES) | IC50 [1] [µM] | logD [2] | other results
1 | c1ccc(-n2cc(CN3CCC4(CC3)OCc3ccccc34)nn2)cc1 | 0.19 |  | 
2 | c1cc(CN2CCC3(CC2)OCc2ccccc23)cc(-c2ccncc2)c1 | > 1 |  | inhibition (CHO): 18%
3 | Cc1nn(-c2ccccc2)cc1CN1CCC2(CC1)OCc1ccccc12 | 0.0069 | > 4 | IC50 [3]: 9.7 µM; remaining at 0.5 h, 1 µM [4]: 4%; IC50 (Mu-type opioid receptor): 3.2 µM; IC50 [5]: 0.0016 µM; remaining at 0.5 h, 1 µM [6]: 28%
4 | CC(C)c1nn(-c2ccccc2)cc1CN1CCC2(CC1)OCc1ccccc12 | 0.021 |  | 
5 | Cc1nn(-c2ccc(Cl)cn2)cc1CN1CCC2(CC1)OCc1ccccc12 | 0.28 | 3.5 | 
6 | Cc1nn(-c2ccccc2)nc1CN1CCC2(CC1)OCc1ccccc12 | > 1 |  | inhibition (CHO): 36%
7 | c1ccc(-n2cc(CN3CCC4(CC3)OCc3ccccc34)cn2)cc1 | 0.04 |  | 
8 | Cc1nn(-c2ncccc2Cl)cc1CN1CCC2(CC1)OCc1ccccc12 | 0.0045 | 3.1 | IC50 [3]: > 10 µM; remaining at 0.5 h, 1 µM [4]: 6%; IC50 (Mu-type opioid receptor): 7.4 µM; IC50 [5]: 0.0027 µM; remaining at 0.5 h, 1 µM [6]: 60%
9 | c1ccc(-n2nccc2CN2CCC3(CC2)OCc2ccccc23)cc1 | > 1 |  | inhibition (CHO): -2%
10 | Cc1nn(-c2cccc(Cl)n2)cc1CN1CCC2(CC1)OCc1ccccc12 | 0.043 | 3.9 | 
11 | Cc1nn(-c2cnccn2)cc1CN1CCC2(CC1)OCc1ccccc12 | 0.2 | 3.5 | 
12 | c1cncc(-c2ccc(CN3CCC4(CC3)OCc3ccccc34)cc2)c1 | > 1 |  | inhibition (CHO): 15%
13 | Cc1c(CN2CCC3(CC2)OCc2ccccc23)cnn1-c1ccccc1 | 0.1 |  | 
14 | CC(=O)Nc1cccnc1-n1cc(CN2CCC3(CC2)OCc2ccccc23)c(C)n1 | 0.027 | 3.2 | 
15 | Cc1nn(-c2ccccc2)c(C)c1CN1CCC2(CC1)OCc1ccccc12 | 0.013 |  | 
16 | c1ccc(-c2nc(CN3CCC4(CC3)OCc3ccccc34)cs2)cc1 | > 1 |  | inhibition (CHO): 3%
17 | Cc1nn(-c2ncccn2)cc1CN1CCC2(CC1)OCc1ccccc12 | 0.093 | 2.9 | 

Row | Structure (SMILES) | IC50 [1] [µM] | logD [2] | other results
18 | Cc1nn(-c2cccnc2)cc1CN1CCC2(CC1)OCc1ccccc12 | 0.13 | 3.2 | 
19 | CC(C)(C)c1nn(-c2ccccc2)cc1CN1CCC2(CC1)OCc1ccccc12 | 0.059 |  | 
20 | Cc1ccnc(-n2cc(CN3CCC4(CC3)OCc3ccccc34)c(C)n2)c1 | 0.019 | 3.2 | IC50 [5]: 0.045 µM
21 | CNC(=O)c1cccnc1-n1cc(CN2CCC3(CC2)OCc2ccccc23)c(C)n1 | 0.022 | 1.4 | 
22 | c1ccc(-c2cccc(CN3CCC4(CC3)OCc3ccccc34)c2)nc1 | 0.31 |  | 
23 | c1cncc(-c2ccccc2CN2CCC3(CC2)OCc2ccccc23)c1 | > 1 |  | inhibition (CHO): 31%
24 | c1ccc(Cc2nn(-c3ccccc3)cc2CN2CCC3(CC2)OCc2ccccc23)cc1 | 0.03 |  | 
25 | Cc1nn(-c2ncccc2NS(C)(=O)=O)cc1CN1CCC2(CC1)OCc1ccccc12 | 0.011 | 2.1 | 
26 | CCc1nn(-c2ccccc2)cc1CN1CCC2(CC1)OCc1ccccc12 | 0.0094 |  | IC50 [5]: 0.0084 µM
27 | c1ccc(-c2csc(CN3CCC4(CC3)OCc3ccccc34)n2)cc1 | > 1 |  | inhibition (CHO): -7%
28 | Cc1nn(-c2ccccn2)cc1CN1CCC2(CC1)OCc1ccccc12 | 0.012 | 3.1 | IC50 [5]: 0.016 µM
29 | Cc1cccnc1-n1cc(CN2CCC3(CC2)OCc2ccccc23)c(C)n1 | 0.0026 | 2.7 | IC50 [3]: > 10 µM; remaining at 0.5 h, 1 µM [4]: 1%; IC50 [7]: 13 µM; IC50 (Mu-type opioid receptor): 4.4 µM; IC50 [5]: 0.0026 µM; remaining at 0.5 h, 1 µM [6]: 64%
30 | Cc1nn(-c2ccccc2Cl)cc1CN1CCC2(CC1)OCc1ccccc12 | 0.00065 | 3.7 | IC50 [5]: 0.00087 µM
31 | Cc1nn(-c2c(Cl)cccc2NS(C)(=O)=O)cc1CN1CCC2(CC1)OCc1ccccc12 | 0.0019 | 2.1 | IC50 [3]: > 10 µM; remaining at 0.5 h, 1 µM [4]: 69%; IC50 [7]: 17 µM; IC50 (Mu-type opioid receptor): > 10 µM; IC50 [5]: 0.00053 µM; remaining at 0.5 h, 1 µM [6]: 54%
32 | c1cncc(-c2cccc(CN3CCC4(CC3)OCc3ccccc34)c2)c1 | > 1 |  | inhibition (CHO): 45%
33 | Cc1nn(-c2ccncc2)cc1CN1CCC2(CC1)OCc1ccccc12 | 0.82 | 3.7 | 
